According to patent US9096608B2, “Pharmaceutically active pyrazolo-triazine derivatives” (LEAD DISCOVERY CENTER GMBH, priority 2012, dated 2015):
Like-named read-outs stand apart in the source and are kept apart here.

Columns and labels:
Format in all cases: biochemical
CDK2/CycA = target: T1, CDK2/CycA (Homo sapiens, UniProt P24941); assay: CDK2 Enzymatic Activity Assay (Lance Kinase Activity Assay, FRET); conditions: for CDK2 IC50 range class: Table 5B, symbols per IC50 ranges of b615
T1 construct: purchased Proqinase
Method: This protocol describes how the Lance Kinase Activity Assay was performed to determine IC50 values of compounds of general formula (I) against CDK/Cyclin complexes. The principle behind this enzymatic assay is based upon the phosphorylation of the Ulight-Peptide Substrat. It is detected by using a specific EU-labeled anti-phospho peptide antibody.
Binding of an inhibitor to the kinase prevents phosphorylation of the ULlight-MBP Substrat, resulting in a loss of FRET.
CDK2 Enzymatic Activity Assay
The compounds of general formula (I) exemplary summarized in Table 1 were diluted from a 10 mM DMSO stock solution 1:10 in a total volume of 15 μl DMSO. This compound predilution was then serial diluted 1:3 over 8 steps in DMSO and briefly spun down. Each compound solution was now diluted 1:20 in Enzymatic Buffer (HEPES: 50 mM, pH: 7.5; MgCl2: 10 mM; EGTA: 1 mM; DTT: 2 mM; Tween-20: 0.01%), mixed thoroughly and spun down.
For positive controls, 2 μl of DMSO working solution were mixed with 6 μl CDK2/CycA/substrate working solution and 2 μl ATP working solution. Positive and negative controls were calculated from at least 8 different wells. The 384 well plates were mixed in a Teleshaker plate mixer (Beckman Coulter, Brea, Calif., USA) at 2000 rpm for 40 sec, and incubated for 1 h at room temperature before addition of 10 μl LANCE Detection Buffer (EDTA: […]; Eu-Anti-P-MBP: 4 nM) per well. Plates were mixed in a Teleshaker plate mixer (Beckman Coulter, Brea, Calif., USA) at 2000 rpm for […], followed by incubation with Detection Buffer for 1 h, and reading. […] IC50 values were determined from the sigmoidal dose response curves with the software Quattro Workflow (Quattro GmbH, Munich, Germany).

CDK7/CycH/Mat1 = target: T2, CDK7/CycH/Mat1 (Homo sapiens, UniProt P50613); assay: CDK7 Enzymatic Activity Assay (Lance Kinase Activity Assay, FRET)
T2 construct: purchased Carna
Outline: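 TR-FRET (LANCE) kinase assay with ULight-MBP peptide substrate and Eu-labelled anti-phospho antibody; compounds in 8-point 1:3 series in HEPES 50 mM pH 7.5, MgCl2 10 mM, EGTA 1 mM, DTT 2 mM, 0.01% Tween-20.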

CDK9/Cyclin T1 = target: T3, CDK9/Cyclin T1 (Homo sapiens, UniProt P50750); assay: CDK9 Enzymatic Activity Assay (Lance Kinase Activity Assay, FRET); conditions: for CDK9: Selectivity of CDK7 inhibition over CDK9 inhibition [fold]: Table 5B, symbols per IC50 ranges of b615
T3 construct: purchased Invitrogen
Outline: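 TR-FRET detection of ULight-MBP substrate phosphorylation by CDK9/cyclin T1 using a Eu-anti-phospho-MBP antibody, in 50 mM HEPES pH 7.5, 10 mM MgCl2, 1 mM EGTA, 2 mM DTT, 0.01% Tween-20. Kinase reaction 1 h at room temperature, then EDTA detection buffer for 1 h before reading.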

[1] = Table 5A, 25 μM ATP final, read-out: CDK7: IC50 [mM] for CDK7 inhibition (the above defined ranges apply)

T3 sequence (P50750 whole entry): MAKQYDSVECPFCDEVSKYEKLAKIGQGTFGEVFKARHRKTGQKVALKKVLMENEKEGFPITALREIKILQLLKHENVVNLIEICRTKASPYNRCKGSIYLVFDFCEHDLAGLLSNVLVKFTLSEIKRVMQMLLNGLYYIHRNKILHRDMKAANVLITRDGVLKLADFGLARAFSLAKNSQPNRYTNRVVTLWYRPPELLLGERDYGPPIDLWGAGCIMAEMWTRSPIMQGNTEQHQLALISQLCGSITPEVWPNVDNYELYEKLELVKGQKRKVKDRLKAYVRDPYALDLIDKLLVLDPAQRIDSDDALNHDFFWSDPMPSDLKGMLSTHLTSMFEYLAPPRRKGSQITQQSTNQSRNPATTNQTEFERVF
T3 sequence (O60563 whole entry partner): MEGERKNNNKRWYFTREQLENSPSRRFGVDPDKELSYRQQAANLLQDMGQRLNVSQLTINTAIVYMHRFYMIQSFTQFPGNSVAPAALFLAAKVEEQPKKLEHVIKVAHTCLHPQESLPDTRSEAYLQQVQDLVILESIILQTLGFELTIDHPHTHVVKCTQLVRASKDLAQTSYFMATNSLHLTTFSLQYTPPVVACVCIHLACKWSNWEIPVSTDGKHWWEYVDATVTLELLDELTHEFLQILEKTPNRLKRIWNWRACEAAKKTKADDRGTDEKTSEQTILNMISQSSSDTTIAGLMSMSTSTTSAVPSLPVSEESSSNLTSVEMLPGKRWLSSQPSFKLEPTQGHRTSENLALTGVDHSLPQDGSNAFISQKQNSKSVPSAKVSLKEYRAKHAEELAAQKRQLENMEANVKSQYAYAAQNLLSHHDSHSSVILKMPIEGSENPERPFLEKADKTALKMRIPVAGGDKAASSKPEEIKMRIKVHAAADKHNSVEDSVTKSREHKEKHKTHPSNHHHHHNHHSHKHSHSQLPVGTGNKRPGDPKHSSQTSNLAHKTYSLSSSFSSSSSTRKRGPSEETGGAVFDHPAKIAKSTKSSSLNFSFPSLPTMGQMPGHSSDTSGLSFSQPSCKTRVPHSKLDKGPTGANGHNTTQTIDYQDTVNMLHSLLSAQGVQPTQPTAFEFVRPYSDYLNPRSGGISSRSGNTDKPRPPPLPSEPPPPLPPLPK
T2 sequence (P50613 whole entry): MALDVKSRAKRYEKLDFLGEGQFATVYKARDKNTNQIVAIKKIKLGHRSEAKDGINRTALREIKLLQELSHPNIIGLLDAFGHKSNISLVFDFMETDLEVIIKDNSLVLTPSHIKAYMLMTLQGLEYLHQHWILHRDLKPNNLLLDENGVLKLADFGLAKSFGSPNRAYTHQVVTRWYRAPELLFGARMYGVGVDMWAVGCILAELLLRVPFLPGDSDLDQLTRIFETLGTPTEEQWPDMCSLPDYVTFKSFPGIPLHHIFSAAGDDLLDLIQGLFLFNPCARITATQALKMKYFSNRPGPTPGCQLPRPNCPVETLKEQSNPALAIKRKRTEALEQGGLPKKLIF
T2 sequence (P51946 whole entry partner): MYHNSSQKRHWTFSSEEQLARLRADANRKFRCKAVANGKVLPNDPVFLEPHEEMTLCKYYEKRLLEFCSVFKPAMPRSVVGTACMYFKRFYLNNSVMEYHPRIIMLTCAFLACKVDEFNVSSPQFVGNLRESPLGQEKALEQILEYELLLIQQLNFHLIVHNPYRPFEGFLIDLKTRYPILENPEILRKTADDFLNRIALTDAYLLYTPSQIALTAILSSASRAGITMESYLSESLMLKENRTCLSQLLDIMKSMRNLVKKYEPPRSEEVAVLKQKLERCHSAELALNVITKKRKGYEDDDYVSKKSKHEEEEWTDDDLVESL
T2 sequence (P51948 whole entry partner): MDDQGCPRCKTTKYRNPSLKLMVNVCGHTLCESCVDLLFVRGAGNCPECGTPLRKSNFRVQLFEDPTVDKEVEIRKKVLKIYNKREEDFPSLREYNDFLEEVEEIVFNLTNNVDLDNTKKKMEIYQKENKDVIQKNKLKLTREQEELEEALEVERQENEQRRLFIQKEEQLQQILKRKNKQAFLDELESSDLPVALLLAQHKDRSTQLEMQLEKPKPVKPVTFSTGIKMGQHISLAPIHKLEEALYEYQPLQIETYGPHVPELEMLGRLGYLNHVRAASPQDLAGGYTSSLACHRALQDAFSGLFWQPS

| Compound | CDK2 IC50 range class (CDK2/CycA) | IC50 (CDK7/CycH/Mat1; [1]) [nM] | CDK9: Selectivity of CDK7 inhibition over CDK9 inhibition [fold] (CDK9/Cyclin T1) | Selectivity CDK7 over CDK2 [fold] (CDK2/CycA; Table 6, CDK2 activity as multiple of CDK7 activity) | multiplicity of the CDK2 and CDK9 activity in terms of the CDK7 activity (CDK7/CycH/Mat1; CDK2 and CDK9 IC50 relative to CDK7 IC50, highest of the two ('up to')) [fold] | IC50 (CDK7/CycH/Mat1; Table 6, read-out: IC50 [nM] CDK7) [nM] | selectivity for CDK7 against CDK2 and CDK9 (in words) (CDK7/CycH/Mat1; comparison of the enzymatic activity assays for CDK2, CDK7 and CDK9) | Selectivity CDK7 over CDK9 [fold] (CDK9/Cyclin T1; Table 6, CDK9 activity as multiple of CDK7 activity) |
| --- | --- | --- | --- | --- | --- | --- | --- | --- |
| CC(C)c1cnn2c(NC(C)c3cccc4ncccc34)nc(OC3CC4(CC(N)C4)C3)nc12 (centres unmarked) [(VII-cc), 2-((6-aminospiro[3.3]heptan-2-yl)oxy)-8-isopropyl-N-(1-(quinolin-5-yl)ethyl)pyrazolo[1,5-a][1,3,5]triazin-4-amine] | +++ (IC50>2500 nM) | 10 to 30 | +++ (IC50>2500 nM) |  |  |  |  |  |
| COc1cccc([C@H](C)Nc2nc(NCCN)nc3c(C(C)C)cnn23)c1 [(VIII-V), (S)-N2-(2-aminoethyl)-8-isopropyl-N4-(1-(3-methoxyphenyl)ethyl)pyrazolo[1,5-a][1,3,5]triazine-2,4-diamine] | +++ (IC50>2500 nM) | > 100 | +++ (IC50>2500 nM) |  |  |  |  |  |
| COc1cccc([C@H](C)Nc2nc(N(C)CCCN3CCCCC3)nc3c(C(C)C)cnn23)c1 [(VIII-X), (S)-8-isopropyl-N4-(1-(3-methoxyphenyl)ethyl)-N2-methyl-N2-(3-(piperidin-1-yl)propyl)pyrazolo(1,5-a][1,3,5]triazine-2,4-diamine] | +++ (IC50>2500 nM) | > 100 | +++ (IC50>2500 nM) |  |  |  |  |  |
| COc1cccc([C@H](C)Nc2nc(N3CCC4(CCNC4)C3)nc3c(C(C)C)cnn23)c1 (stereo partly drawn) [(VIII-af), 8-isopropyl-N-((S)-1-(3-methoxyphenyl)ethyl)-2-(2,7-diazaspiro[4.4]nonan-2-yl)pyrazolo[1,5-a][1,3,5]triazin-4-amine] | +++ (IC50>2500 nM) | 10 to 30 | +++ (IC50>2500 nM) |  |  |  |  |  |
| COc1cccc([C@H](C)Nc2nc(N3CCC34CCCNC4)nc3c(C(C)C)cnn23)c1 (stereo partly drawn) [(VIII-ag), 8-isopropyl-N-((S)-1-(3-methoxyphenyl)ethyl)-2-(1,6-diazaspiro[3.5]nonan-1-yl)pyrazolo[1,5-a][1,3,5]triazin-4-amine] | +++ (IC50>2500 nM) | 10 to 30 | +++ (IC50>2500 nM) |  |  |  |  |  |
| COc1cccc([C@H](C)Nc2nc(N3CCC4(CCN4)CC3)nc3c(C(C)C)cnn23)c1 [(VIII-aj), (S)-8-isopropyl-N-(1-(3-methoxyphenyl)ethyl)-2-(1,7-diazaspiro[3.5]nonan-7-yl)pyrazolo[1,5-a][1,3,5]triazin-4-amine] | +++ (IC50>2500 nM) | < 10 | +++ (IC50>2500 nM) |  |  |  |  |  |
| COc1cccc([C@H](C)Nc2nc(N3CCCC34CCNCC4)nc3c(C(C)C)cnn23)c1 [(VIII-ak), (S)-8-isopropyl-N-(1-(3-methoxyphenyl)ethyl)-2-(1,8-diazaspiro[4.5]decan-1-yl)pyrazolo[1,5-a][1,3,5]triazin-4-amine] | +++ (IC50>2500 nM) | 10 to 30 | +++ (IC50>2500 nM) |  |  |  |  |  |
| COc1cccc([C@H](C)Nc2nc(N3CCC34CCNCC4)nc3c(C(C)C)cnn23)c1 [(VIII-al), (S)-8-isopropyl-N-(1-(3-methoxyphenyl)ethyl)-2-(1,7-diazaspiro[3.5]nonan-1-yl)pyrazolo[1,5-a][1,3,5]triazin-4-amine] | +++ (IC50>2500 nM) | < 10 | +++ (IC50>2500 nM) |  |  |  |  |  |

The remaining lines, values ahead:

| CDK2 IC50 range class (CDK2/CycA) | IC50 (CDK7/CycH/Mat1; [1]) [nM] | CDK9: Selectivity of CDK7 inhibition over CDK9 inhibition [fold] (CDK9/Cyclin T1) | Selectivity CDK7 over CDK2 [fold] (CDK2/CycA; Table 6, CDK2 activity as multiple of CDK7 activity) | multiplicity of the CDK2 and CDK9 activity in terms of the CDK7 activity (CDK7/CycH/Mat1; CDK2 and CDK9 IC50 relative to CDK7 IC50, highest of the two ('up to')) [fold] | IC50 (CDK7/CycH/Mat1; Table 6, read-out: IC50 [nM] CDK7) [nM] | selectivity for CDK7 against CDK2 and CDK9 (in words) (CDK7/CycH/Mat1; comparison of the enzymatic activity assays for CDK2, CDK7 and CDK9) | Selectivity CDK7 over CDK9 [fold] (CDK9/Cyclin T1; Table 6, CDK9 activity as multiple of CDK7 activity) | Compound |
| --- | --- | --- | --- | --- | --- | --- | --- | --- |
| +++ (IC50>2500 nM) | < 10 | +++ (IC50>2500 nM) |  |  |  |  |  | CC(C)c1cnn2c(NC(C)c3ccccc3S(=O)(=O)N3CCCC3)nc(O[C@@H]3CCCNC3)nc12 (stereo partly drawn) [(VII-bz), 8-isopropyl-2-((R)-piperidin-3-yloxy)-N-(1-(2-(pyrrolidin-1-ylsulfonyl)phenyl)ethyl)pyrazolo[1,5-a][1,3,5]triazin-4-amine] |
| +++ (IC50>2500 nM) | < 10 | +++ (IC50>2500 nM) |  |  |  |  |  | CC(C)c1cnn2c(NC(C)c3ccc4[nH]ncc4c3)nc(O[C@@H]3CCCNC3)nc12 (stereo partly drawn) [(VII-ca), N-(1-(1H-indazol-5-yl)ethyl)-8-isopropyl-2-((R)-piperidin-3-yloxy)pyrazolo[1,5-a][1,3,5]triazin-4-amine] |
| +++ (IC50>2500 nM) | < 10 | +++ (IC50>2500 nM) |  |  |  |  |  | CC(C)c1cnn2c(NC(C)c3cccc4cn[nH]c34)nc(O[C@@H]3CCCNC3)nc12 (stereo partly drawn) [(VII-cb), N-(1-(1H-indazol-7-yl)ethyl)-8-isopropyl-2-((R)-piperidin-3-yloxy)pyrazolo[1,5-a][1,3,5]triazin-4-amine] |
| +++ (IC50>2500 nM) | < 10 | +++ (IC50>2500 nM) | 733 | > 733 | < 10 | selectively inhibits only CDK7 | 598 | CC(C)c1cnn2c(N[C@@H](C)c3ccccc3)nc(O[C@@H]3CCCNC3)nc12 [(VII-j), 8-isopropyl-N-((S)-1-phenylethyl)-2-((R)-piperidin-3-yloxy)pyrazolo[1,5-a][1,3,5]triazin-4-amine] |
| +++ (IC50>2500 nM) | < 10 | +++ (IC50>2500 nM) |  |  |  |  |  | CC(C)c1cnn2c(N[C@@H](C)c3ccccc3)nc(OC3CCC(N)CC3)nc12 (stereo partly drawn) [(VII-k), (S)-2-((4-aminocyclohexyl)oxy)-8-isopropyl-N-(1-phenylethyl)pyrazolo[1,5-a][1,3,5]triazin-4-amine] |
| +++ (IC50>2500 nM) | < 10 | +++ (IC50>2500 nM) |  |  |  |  |  | COc1cccc([C@H](C)Nc2nc(O[C@@H]3CCCNC3)nc3c(C(C)C)cnn23)c1 [(VII-r), 8-isopropyl-N-((S)-1-(3-methoxyphenyl)ethyl)-2-((R)-piperidin-3-yloxy)pyrazolo[1,5-a][1,3,5]triazin-4-amine] |
| +++ (IC50>2500 nM) | < 10 | +++ (IC50>2500 nM) |  |  |  |  |  | COc1cccc([C@H](C)Nc2nc(N3CC4(CCNC4)C3)nc3c(C(C)C)cnn23)c1 [(VIII-ae), (S)-8-isopropyl-N-(1-(3-methoxyphenyl)ethyl)-2-(2,6-diazaspiro[3.4]octan-2-yl)pyrazolo[1,5-a][1,3,5]triazin-4-amine] |
| +++ (IC50>2500 nM) | < 10 | +++ (IC50>2500 nM) |  |  |  |  |  | COc1cccc([C@H](C)Nc2nc(N3CCCC4(CCCCN4)C3)nc3c(C(C)C)cnn23)c1 (stereo partly drawn) [(VIII-ah), 8-isopropyl-N-((S)-1-(3-methoxyphenyl)ethyl)-2-(1,8-diazaspiro[5.5]undecan-8-yl)pyrazolo[1,5-a][1,3,5]triazin-4-amine] |
| +++ (IC50>2500 nM) | < 10 | +++ (IC50>2500 nM) |  |  |  |  |  | COc1cccc([C@H](C)Nc2nc(N3CCC4(CCCN4)CC3)nc3c(C(C)C)cnn23)c1 [(VIII-ai), (S)-8-isopropyl-N-(1-(3-methoxyphenyl)ethyl)-2-(1,8-diazaspiro[4.5]decan-8-yl)pyrazolo[1,5-a][1,3,5]triazin-4-amine] |
